Reference: ChEMBL document CHEMBL5223082, “Alkyl-Aryl-Vancomycins: Multimodal Glycopeptides with Weak Dependence on the Bacterial Metabolic State” (J Med Chem, 2021)

Tests used:
[1] = tested on: Enterococcus; experiment: Antibacterial activity against Vancomycin-resistant Enterococci ATCC 51559 assessed as inhibition of bacterial growth incubated for 18 to 24 hrs by CLSI microbroth dilution method; type: functional; details: time 18-24 hrs
[2] = tested on: Staphylococcus aureus; experiment: Potency index, ratio of Vancomycin MIC to test compound MIC for antibacterial activity against Vancomycin-resistant Staphylococcus aureus 4; type: functional
[3] = tested on: Staphylococcus aureus; experiment: Antibacterial activity against Methicillin-resistant Staphylococcus aureus ATCC 33591 assessed as inhibition of bacterial growth incubated for 18 to 24 hrs by CLSI microbroth dilution method; type: functional; details: time 18-24 hrs
[4] = tested on: Staphylococcus aureus; experiment: Antibacterial activity against Vancomycin-resistant Staphylococcus aureus 1 assessed as inhibition of bacterial growth incubated for 18 to 24 hrs by CLSI microbroth dilution method; type: functional; details: time 18-24 hrs
[5] = tested on: Enterococcus; experiment: Antibacterial activity against Vancomycin-resistant Enterococci NR30909 assessed as inhibition of bacterial growth incubated for 18 to 24 hrs by CLSI microbroth dilution method; type: functional; details: time 18-24 hrs
[6] = tested on: Staphylococcus aureus; experiment: Antibacterial activity against Vancomycin-resistant Staphylococcus aureus 12 assessed as inhibition of bacterial growth incubated for 18 to 24 hrs by CLSI microbroth dilution method; type: functional; details: time 18-24 hrs
[7] = tested on: Enterococcus; experiment: Potency index, ratio of Vancomycin MIC to test compound MIC for antibacterial activity against Vancomycin-resistant Enterococci NR30909; type: functional, NR 30909
[8] = tested on: Enterococcus; experiment: Potency index, ratio of Vancomycin MIC to test compound MIC for antibacterial activity against Vancomycin-resistant Enterococci ATCC 51575; type: functional
[9] = tested on: Staphylococcus aureus; experiment: Potency index, ratio of Vancomycin MIC to test compound MIC for antibacterial activity against Vancomycin-resistant Staphylococcus aureus 12; type: functional
[10] = tested on: Enterococcus; experiment: Potency index, ratio of Vancomycin MIC to test compound MIC for antibacterial activity against Vancomycin-resistant Enterococci NR30903; type: functional, NR 30903
[11] = tested on: Enterococcus; experiment: Potency index, ratio of Vancomycin MIC to test compound MIC for antibacterial activity against Vancomycin-resistant Enterococci ATCC 51559; type: functional
[12] = Induction of hemolysis in human erythrocytes incubated for 1 hr by microtiter plater reader analysis; type: toxicity, cell-based, Erythrocyte
[13] = tested on: Staphylococcus aureus; experiment: Antibacterial activity against Vancomycin-resistant Staphylococcus aureus 4 assessed as inhibition of bacterial growth incubated for 18 to 24 hrs by CLSI microbroth dilution method; type: functional; details: time 18-24 hrs
[14] = tested on: Staphylococcus aureus; experiment: Potency index, ratio of Vancomycin MIC to test compound MIC for antibacterial activity against Methicillin-resistant Staphylococcus aureus ATCC 33591; type: functional
[15] = tested on: Enterococcus; experiment: Antibacterial activity against Vancomycin-resistant Enterococci ATCC 51575 assessed as inhibition of bacterial growth incubated for 18 to 24 hrs by CLSI microbroth dilution method; type: functional; details: time 18-24 hrs
[16] = Induction of hemolysis in human erythrocytes at 250 uM incubated for 1 hr by microtiter plater reader analysis; type: toxicity, cell-based, Erythrocyte; details: read-out: Activity
[17] = tested on: Staphylococcus aureus; experiment: Potency index, ratio of Vancomycin MIC to test compound MIC for antibacterial activity against Vancomycin-resistant Staphylococcus aureus 1; type: functional
[18] = tested on: Enterococcus; experiment: Antibacterial activity against Vancomycin-resistant Enterococci NR30903 assessed as inhibition of bacterial growth incubated for 18 to 24 hrs by CLSI microbroth dilution method; type: functional; details: time 18-24 hrs

Work on `CCCCCCNC(=O)C[N+](C)(C)CCCNC(=O)c1ccc(CN[C@@]2(C)C[C@H](O[C@H]3[C@H](Oc4c5cc6cc4Oc4ccc(cc4Cl)[C@@H](O)[C@@H](NC(=O)[C@@H](CC(C)C)NC)C(=O)N[C@@H](CC(N)=O)C(=O)N[C@H]6C(=O)N[C@H]4C(=O)N[C@H](C(=O)N[C@H](C(=O)O)c6cc(O)cc(O)c6-c6cc4ccc6O)[C@H](O)c4ccc(c(Cl)c4)O5)O[C@H](CO)[C@@H](O)[C@@H]3O)O[C@@H](C)[C@H]2O)cc1` yielded an MIC [1] greater than 30 µM, a Ratio [2] of 10 and an MIC [3] of 0.4 µM. It also gave an MIC [4] of 14.9 µM, an MIC [5] of 14.9 µM and an MIC [6] of 7.4 µM. For the same compound, the Ratio [7] was 10, the Ratio [8] was 10 and the Ratio [9] was 10. It also gave a Ratio [10] of 10, a Ratio [11] of 10 and an HC50 at 1 h [12] greater than 250 µM. The MIC [13] was 29.8 µM, the Ratio [14] was 2 and the MIC [15] was greater than 30 µM. The hemolysis at 1 h, 250 µM [16] was 1%, the Ratio [17] was 10 and the MIC [18] was 7.4 µM.
